In PubChem BioAssay (NCI):
“And” between values parts separate entries of the source, which are not always exact repeats. Equal values may be shown once.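 A five-concentration, 48-hour dose response in 96-well plates underlies each endpoint, interpolated linearly between surrounding concentrations. Here, GI50 denotes the concentration required for 50% inhibition of growth. TGI: concentration producing complete growth inhibition.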

Legend:
Test in all cases: DTP human tumour cell line panel, 48 h
CCRF-CEM leukemia = tested on: CCRF-CEM leukemia
SF-295 CNS = tested on: SF-295 CNS
SNB-19 CNS = tested on: SNB-19 CNS
CAKI-1 renal = tested on: CAKI-1 renal
HCC-2998 colon = tested on: HCC-2998 colon
A549 NSCLC = tested on: A549 NSCLC
OVCAR-4 ovarian = tested on: OVCAR-4 ovarian
MCF7 breast = tested on: MCF7 breast
LOX IMVI melanoma = tested on: LOX IMVI melanoma
NCI-H23 lung = tested on: NCI-H23 lung
UO-31 renal = tested on: UO-31 renal
786-0 renal = tested on: 786-0 renal
DU-145 prostate = tested on: DU-145 prostate
NCI-H522 lung = tested on: NCI-H522 lung

SMILES | TGI (CCRF-CEM leukemia) [µM] | TGI (SF-295 CNS) | TGI (SNB-19 CNS) [µM] | TGI (CAKI-1 renal) [µM] | TGI (HCC-2998 colon) [µM] | TGI (A549 NSCLC) [µM] | TGI (OVCAR-4 ovarian) | TGI (MCF7 breast) [µM] | TGI (LOX IMVI melanoma) [µM] | TGI (NCI-H23 lung) [µM] | TGI (UO-31 renal) [µM] | TGI (786-0 renal) [µM] | TGI (DU-145 prostate) [µM] | TGI (NCI-H522 lung) [µM] | GI50 (CCRF-CEM leukemia) | GI50 (HCC-2998 colon) [µM] | GI50 (LOX IMVI melanoma) [µM] | GI50 (NCI-H23 lung) | GI50 (UO-31 renal) [µM]
CSC(=S)Nc1cccc(C)n1 | > 100 | > 100 µM | > 100 | > 100 | > 100 | > 100 | > 100 µM | > 100 | > 100 | > 100 | > 100 | > 100 | > 100 | > 100 |  |  |  |  | 
Fc1ccc(N2C(=S)SC(=Nc3ccccc3)C2=Nc2ccccc2)cc1 | > 46.4 | > 100 µM | > 100 | > 100 | > 100 | > 100 | > 100 µM | > 100 | > 100 | > 100 | > 100 | > 100 | > 100 | > 100 |  |  |  |  | 
CC(=O)NC1C(OCc2ccccc2)OC(CO)C(O)C1OC(C)C(=O)NC(C)C(=O)NC(CCC(=O)NCCCCNc1c2ccccc2nc2cccc([N+](=O)[O-])c12)C(N)=O (stereo not given) | 0.578 | 1.66 µM | 0.242 | 0.307 | 0.0588 | 0.838 | 0.645 µM | 0.652 | 0.548 | 0.221 | 0.339 | 0.146 | 0.049 | 0.286 |  |  |  |  | 
CCOC(=O)C(=CNc1ccc(NC2=NCC(C)S2)cc1)C(=O)OCC (stereo not given) | 1.84 | > 100 µM | > 100 | > 100 | > 100 | > 100 | > 51.8 µM | > 100 | > 85.4 | > 100 | 73 | 84.6 | > 100 | 36.8 |  |  |  |  | 
CCOC(=O)/C=C/CCO[Si](C)(C)C(C)(C)C | > 100 | > 100 µM | > 100 | > 100 | > 100 | > 100 | > 100 µM | > 100 | > 100 | > 100 | > 100 | > 100 | > 100 | > 100 |  |  |  |  | 
O=C(N/N=C/c1ccc([N+](=O)[O-])cc1)Nc1ccc(C(=O)O)cc1 | > 100 | 63.7 µM | > 100 | > 100 | 52.6 | > 100 | > 100 µM | > 100 | > 100 | > 100 | > 100 | > 100 | > 100 | 58 |  |  |  |  | 
Oc1[nH]c2ccccc2c1N=NC(=S)Nc1ccccc1Cl | 49.9 | 20.9 µM | > 100 | 8.78 | > 100 | 23.8 | 63.7 µM | 33.4 | 27.4 | 33.5 | 81.6 | 20.8 | 58.5 | > 100 |  |  |  |  | 
O=[N+]([O-])/C(C(Cl)=C(Cl)Cl)=C(/Cl)SCc1ccccc1 | 0.448 | 69.1 µM | 43.2 | 12.5 | 43.5 | 32.7 | 18.6 µM | 16 | 23.4 | 23 | 4.83 | 3.09 | 32.5 | 7.8 |  |  |  |  | 
COC(=O)[C@]1(NC(=O)c2ccccc2)C[C@H]1C=O | 51.5 | > 100 µM | > 100 | > 100 | > 100 | > 100 | > 100 µM | > 100 | > 100 | > 100 | > 100 | > 100 | > 100 | > 100 |  |  |  |  | 
Nc1ccc2c(c1)nc1n2C(c2c(F)cccc2F)SC1 (stereo not given) | > 100 | > 100 µM | > 100 | > 100 | > 100 | > 100 | > 100 µM | > 100 | > 100 | > 100 | > 100 | > 100 | > 100 | > 100 |  |  |  |  | 
O=[N+]([O-])c1ccc(C(=S)Nc2ccccc2)o1 | 11.4 | 15.5 µM | 17.3 | 13.9 | 3.17 | 22.4 | 6.47 µM | 5.57 | 8.6 | 12.4 | 5.73 | 6.19 | 19.9 | 3.11 |  |  |  |  | 
COc1ccc(/C(Br)=C2\OC(=O)c3ccccc32)cc1 | > 10 | > 10 µM | > 10 | > 10 | > 10 | > 10 | > 10 µM | > 10 | > 10 | > 10 | > 10 | > 10 | > 10 | > 10 |  |  |  |  | 
N#Cc1c2c(c(N)oc1=O)C(c1ccccc1)CC(=O)N2 (stereo not given) | > 100 | > 100 µM | > 100 | > 100 | > 100 | > 100 | > 100 µM | > 100 | > 100 | > 100 | > 100 | > 100 | > 100 | > 100 |  |  |  |  | 
Cc1cn(CCCCC2=NCCCN2)c(=O)[nH]c1=O | > 23 | > 65.5 µM | > 66.2 | > 23.4 | > 32.9 | > 54.4 | > 40.7 µM | > 34.4 | > 32.6 | > 44.3 | > 31 | > 30.1 | > 34.4 | > 46.3 |  |  |  |  | 
CCOC(=O)C1(C(=O)OCC)[C@@H](c2ccccc2)C2=NO[C@@H]3CCC[C@H]1[C@H]23 | 78.7 | > 100 µM | > 100 | > 100 | 50.2 | > 100 | > 100 µM | > 100 | > 100 | > 100 | > 100 | > 100 | > 100 | > 100 |  |  |  |  | 
[N-]=[N+]=NI1OC(=O)c2ccccc21 | > 100 | > 100 µM | > 100 | 46.9 | > 100 | > 100 | > 100 µM | > 100 | > 100 | > 100 | > 100 | > 100 | > 100 | 40.6 |  |  |  |  | 
CC1(c2nc3ccccc3[nH]2)CCC(C(=O)O)C(C)(C)O1 (stereo not given) | > 100 | > 100 µM | > 100 | > 100 | > 100 | > 100 | > 100 µM | > 100 | > 100 | > 100 | > 100 | > 100 | > 100 | > 100 |  |  |  |  | 
O=c1[nH]nc(Cc2ccccc2)n1C1CCCC1 | > 100 | > 100 µM | > 100 | > 100 | > 100 | > 100 | > 100 µM | > 100 | > 100 | > 100 | > 100 | > 100 | > 100 | > 100 |  |  |  |  | 
COC(=O)c1ccc2c(c1)S/C(=C/c1ccc3ccc4cccc5ccc1c3c45)S2 | > 100 | > 100 µM | > 100 | > 100 | > 100 | > 100 | > 100 µM | > 100 | > 100 | 52.7 | > 100 | > 100 | > 100 | 92.2 |  |  |  |  | 
COc1ccc(N2C(=O)/C(=C\c3cc(OC)c(OC)c(OC)c3)SC2c2ccccc2)cc1 (stereo not given) | > 100 | > 100 µM | > 100 | > 100 | > 100 | > 100 | > 100 µM | > 100 | > 100 | > 100 | > 100 | > 100 | > 100 | > 100 |  |  |  |  | 
N#Cc1nc(-c2ccco2)oc1N | > 10 | > 10 µM | > 10 | > 10 | > 10 | > 10 | > 10 µM | > 10 | > 10 | > 10 | > 10 | > 10 | > 10 | > 10 |  |  |  |  | 
CCOC(=O)c1sc2nc(SC)nc3c2c1NCN3c1ccc2c(c1)OCO2 | 32.9 | 53.3 µM | 31.2 | > 100 | > 100 | 25.4 | 26.4 µM | > 100 | > 100 | > 100 | 69.8 | 15 | 39.7 | 98.1 |  |  |  |  | 
Cc1cc(N(CCC#N)CCC#N)ccc1/C(N=Nc1cccc(Cl)c1)=N/NC(=O)c1cc(Cl)ccc1O | 37.2 | > 100 µM | > 100 | 44.8 | 26.2 | 75.7 | 55.8 µM | > 100 | 42.2 | 31.1 | 55.6 | 64.8 | 42.6 | 49 |  |  |  |  | 
c1cc2nnc1SCCCSc1ccc(nn1)SCCCS2 | > 100 | > 100 µM | > 93.2 | > 100 | 99.5 | > 100 | > 100 µM | > 100 | > 48.4 | > 100 | > 100 | > 100 | > 100 | > 100 |  |  |  |  | 
COc1cc2c(c(O)c1OC)C(=O)[C@@H]1CCC(=O)N1C2 | > 100 | > 100 µM | > 100 | > 100 | > 100 | > 100 | > 100 µM | > 100 | > 100 | > 100 | > 100 | > 100 | > 100 | > 100 |  |  |  |  | 
O=[N+]([O-])c1ccc(OC2CC3C4C=CC3C2C4)c([N+](=O)[O-])c1 (stereo not given) | > 100 | 49.9 µM and > 31.6 µM | > 100 | > 100 | > 100 | > 100 | 76.3 µM and > 31.6 µM | > 100 | > 100 | > 100 | > 100 | > 100 | > 100 | > 100 | > 100 µM and 24 µM | > 100 | > 100 | > 100 µM and 26.8 µM | > 100
N[C@H](C(=O)O)[C@@H]1CC(Br)=NO1 | > 100 | > 100 µM | > 100 | > 100 | > 100 | > 100 | > 100 µM | > 100 | > 100 | > 100 | > 100 | > 100 | > 100 | > 100 |  |  |  |  | 
COc1ccc2c(c1)c1c(n2CCN(C)C)-c2ccccc2CC1 | 38.6 | 30.6 µM | 35.5 | 27.6 | 32.2 | 29.5 | 31.4 µM | 35.1 | 33.5 | 31.9 | 26.4 | 30.4 | 29.4 | 32.9 |  |  |  |  | 
CC(=O)C1=CN=C2C(=O)N(c3ccccc3)N(C)C12C (stereo not given) | > 100 | > 100 µM | > 100 | > 100 | > 100 | > 100 | > 100 µM | > 100 | > 100 | > 100 | > 100 | > 100 | > 100 | > 100 |  |  |  |  | 
CC(=O)OCC(=O)O[C@@H]1[C@H]2[C@@H](OC(=O)c3ccccc3)[C@@H](C)C[C@]2(O)[C@H](OC(C)=O)[C@@]2(C)C(OC(C)=O)[C@]1(OC(C)=O)C[C@H]1C(=O)C(C)(C)C[C@@H]12 (stereo not given in full) | > 50 | > 50 µM | > 50 | > 50 | > 50 | > 50 | > 50 µM | > 50 | > 50 | > 50 | > 50 | > 50 | > 50 | > 50 |  |  |  |  | 
